# From ChEMBL document CHEMBL4390666, “Chemical manipulations on the 1,4-dioxane ring of 5-HT1A receptor agonists lead to antagonists endowed with antitumor activity in prostate cancer cells” (Eur J Med Chem, 2019)
# Activity calls are given as the source filed them. The calls are words filed in the database; no cut-off is given here.
# Columns and labels:
# [1] = molecular target: T1, Alpha-1A adrenergic receptor (Homo sapiens, UniProt P35348); assay: biochemical
# T1 sequence (P35348 whole entry): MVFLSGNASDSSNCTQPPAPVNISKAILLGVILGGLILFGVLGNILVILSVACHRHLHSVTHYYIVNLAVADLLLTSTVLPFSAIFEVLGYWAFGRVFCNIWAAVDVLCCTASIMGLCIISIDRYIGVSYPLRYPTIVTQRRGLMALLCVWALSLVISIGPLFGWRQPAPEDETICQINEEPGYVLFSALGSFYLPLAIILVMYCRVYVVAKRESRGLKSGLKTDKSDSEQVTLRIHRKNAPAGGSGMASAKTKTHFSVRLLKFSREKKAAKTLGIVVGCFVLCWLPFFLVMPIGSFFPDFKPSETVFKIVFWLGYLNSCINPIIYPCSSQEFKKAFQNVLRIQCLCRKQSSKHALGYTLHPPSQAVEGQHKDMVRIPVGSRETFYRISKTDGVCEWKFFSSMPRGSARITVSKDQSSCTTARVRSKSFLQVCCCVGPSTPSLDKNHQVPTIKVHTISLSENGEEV
# Description: Displacement of [3H]Prazosin from human recombinant alpha 1A adrenergic receptor expressed in CHO cells incubated for 30 mins by radioligand competition binding assay
# [2] = molecular target: T2, Alpha-1B adrenergic receptor (Homo sapiens, UniProt P35368); assay: biochemical
# T2 sequence (P35368 whole entry): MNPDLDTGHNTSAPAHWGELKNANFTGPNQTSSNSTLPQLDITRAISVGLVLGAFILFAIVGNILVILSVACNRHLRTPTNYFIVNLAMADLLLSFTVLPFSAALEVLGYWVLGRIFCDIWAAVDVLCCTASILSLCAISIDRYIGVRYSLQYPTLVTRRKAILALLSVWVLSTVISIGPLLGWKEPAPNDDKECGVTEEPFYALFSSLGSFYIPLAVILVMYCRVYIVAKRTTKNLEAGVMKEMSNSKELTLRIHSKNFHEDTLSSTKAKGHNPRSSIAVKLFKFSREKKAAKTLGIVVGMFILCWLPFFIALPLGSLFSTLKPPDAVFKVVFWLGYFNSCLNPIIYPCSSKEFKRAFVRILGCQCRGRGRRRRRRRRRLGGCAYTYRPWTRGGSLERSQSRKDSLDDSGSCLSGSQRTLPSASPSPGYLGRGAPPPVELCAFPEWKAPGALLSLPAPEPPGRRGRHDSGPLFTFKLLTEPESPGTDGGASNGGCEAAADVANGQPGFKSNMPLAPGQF
# Description: Displacement of [3H]Prazosin from human recombinant alpha 1B adrenergic receptor expressed in CHO cells incubated for 30 mins by radioligand competition binding assay
# [3] = molecular target: T3, 5-hydroxytryptamine receptor 1A (Homo sapiens, UniProt P08908); assay: biochemical
# T3 sequence (P08908 whole entry): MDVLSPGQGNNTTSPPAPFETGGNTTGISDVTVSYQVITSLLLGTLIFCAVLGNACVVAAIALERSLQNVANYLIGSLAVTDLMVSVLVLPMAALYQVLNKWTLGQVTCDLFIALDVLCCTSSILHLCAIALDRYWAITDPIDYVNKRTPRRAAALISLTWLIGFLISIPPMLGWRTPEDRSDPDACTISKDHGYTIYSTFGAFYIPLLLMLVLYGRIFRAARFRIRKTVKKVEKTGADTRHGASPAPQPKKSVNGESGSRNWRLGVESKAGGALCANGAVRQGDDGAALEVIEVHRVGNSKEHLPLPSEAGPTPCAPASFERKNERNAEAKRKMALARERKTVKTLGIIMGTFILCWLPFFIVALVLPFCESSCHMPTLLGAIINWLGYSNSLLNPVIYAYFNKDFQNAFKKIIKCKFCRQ
# [4] = molecular target: T4, Alpha-1D adrenergic receptor (Homo sapiens, UniProt P25100); assay: biochemical
# T4 sequence (P25100 whole entry): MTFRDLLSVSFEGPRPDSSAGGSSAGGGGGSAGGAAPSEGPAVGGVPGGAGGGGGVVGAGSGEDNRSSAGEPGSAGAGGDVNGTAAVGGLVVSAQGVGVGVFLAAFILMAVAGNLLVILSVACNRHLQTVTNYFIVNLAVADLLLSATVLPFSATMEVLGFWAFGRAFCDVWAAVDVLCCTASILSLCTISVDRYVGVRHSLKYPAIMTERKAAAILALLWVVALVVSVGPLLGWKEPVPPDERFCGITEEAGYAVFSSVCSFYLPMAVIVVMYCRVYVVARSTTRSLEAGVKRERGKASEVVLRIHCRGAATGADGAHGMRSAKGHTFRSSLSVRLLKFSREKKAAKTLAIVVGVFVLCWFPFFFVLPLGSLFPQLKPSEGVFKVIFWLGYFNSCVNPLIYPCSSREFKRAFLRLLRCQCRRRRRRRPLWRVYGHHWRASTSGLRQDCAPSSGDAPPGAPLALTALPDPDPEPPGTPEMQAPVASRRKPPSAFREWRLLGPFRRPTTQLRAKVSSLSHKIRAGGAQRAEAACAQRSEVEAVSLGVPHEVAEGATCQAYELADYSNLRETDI
# Description: Displacement of [3H]Prazosin from human recombinant alpha 1D adrenergic receptor expressed in CHO cells incubated for 30 mins by radioligand competition binding assay
# D(2) dopamine receptor = D(2) dopamine receptor (Homo sapiens, UniProt P14416); assay: Displacement of [3H]N-methylspiperone from human dopamine D2 receptor expressed in HEK293 cell membranes incubated for 1 hr by liquid scintillation counting
# [5] = molecular target: T5, 5-hydroxytryptamine receptor 1A (Homo sapiens) (UniProt P08908); assay: Agonist activity at cloned human 5-HT1A receptor transfected in human HeLa cell membranes preincubated for 20 mins followed by [35S]GTPgammaS addition and measured after 30 mins by liquid scintillation counting relative to 8-OH-DPAT; type: functional
# T5 sequence (whole entry): T3 sequence (P08908 whole entry)
# D(4) dopamine receptor = molecular target: T6, D(4) dopamine receptor (Homo sapiens, UniProt P21917); assay: Displacement of [3H]N-methylspiperone from human dopamine D4 receptor expressed in HEK293 cell membranes incubated for 1 hr by liquid scintillation counting
# T6 sequence (P21917 whole entry): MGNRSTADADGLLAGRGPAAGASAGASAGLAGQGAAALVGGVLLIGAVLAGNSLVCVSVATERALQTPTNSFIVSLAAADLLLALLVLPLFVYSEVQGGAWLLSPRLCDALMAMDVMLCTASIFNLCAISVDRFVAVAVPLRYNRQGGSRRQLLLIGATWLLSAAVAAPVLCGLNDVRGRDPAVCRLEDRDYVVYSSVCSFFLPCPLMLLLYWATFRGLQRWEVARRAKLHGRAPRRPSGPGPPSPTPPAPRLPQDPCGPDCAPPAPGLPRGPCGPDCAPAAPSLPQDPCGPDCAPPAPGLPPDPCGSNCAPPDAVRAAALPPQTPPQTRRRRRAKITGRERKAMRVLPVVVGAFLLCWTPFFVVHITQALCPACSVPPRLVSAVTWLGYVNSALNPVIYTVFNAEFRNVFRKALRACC
# [6] = molecular target: T5, 5-hydroxytryptamine receptor 1A (Homo sapiens); assay: Agonist activity at cloned human 5-HT1A receptor transfected in human HeLa cell membranes assessed as stimulation of [35S]GTPgammaS binding preincubated for 20 mins followed by [35S]GTPgammaS addition and measured after 30 mins by liquid scintillation counting; type: functional
# D(3) dopamine receptor = D(3) dopamine receptor (Homo sapiens, UniProt P35462); assay: Displacement of [3H]N-methylspiperone from human dopamine D3 receptor expressed in HEK293 cell membranes incubated for 1 hr by liquid scintillation counting
# PC-3 [7] = assay: Growth inhibition of human PC3 cells incubated for 48 hrs by SRB assay; type: functional; details: PC-3, 48 h; for CC50: read-out: LC50 (the source's name)
# PC-3 [8] = assay: Inhibition of norepinephrine-stimulated human PC3 cells proliferation at 5 to 10 uM incubated for 48 hrs by SRB assay; type: functional, cell-based
# PC-3 [9] = assay: Inhibition of 5-HT-stimulated human PC3 cells proliferation at 5 to 10 uM incubated for 48 hrs by SRB assay; type: functional, cell-based
# DU-145 [10] = assay: Inhibition of norepinephrine-stimulated human DU145 cells proliferation at 5 to 10 uM incubated for 48 hrs by SRB assay; type: functional, cell-based
# [11] = (§1) Growth inhibition of human fibroblast cells incubated for 48 hrs by SRB assay; type: cell-based; details: human fibroblast cells
# Fibroblast = assay: as §1; type: cell-based; details: fibroblast, 48 h
# [12] = molecular target: T5, 5-hydroxytryptamine receptor 1A (Homo sapiens); details: HeLa
# Description: Antagonist activity at cloned human 5-HT1A receptor transfected in human HeLa cell membranes preincubated for 20 mins followed by [35S]GTPgammaS addition and measured after 30 mins by liquid scintillation counting
# DU-145 [13] = assay: Inhibition of 5-HT-stimulated human DU145 cells proliferation at 5 to 10 uM incubated for 48 hrs by SRB assay; type: functional, cell-based
# DU-145 [14] = assay: Growth inhibition of human DU145 cells incubated for 48 hrs by SRB assay; type: functional; details: DU-145, 48 h; for CC50: read-out: LC50 (the source's name)
# Sequence of D(2) dopamine receptor (P14416 whole entry): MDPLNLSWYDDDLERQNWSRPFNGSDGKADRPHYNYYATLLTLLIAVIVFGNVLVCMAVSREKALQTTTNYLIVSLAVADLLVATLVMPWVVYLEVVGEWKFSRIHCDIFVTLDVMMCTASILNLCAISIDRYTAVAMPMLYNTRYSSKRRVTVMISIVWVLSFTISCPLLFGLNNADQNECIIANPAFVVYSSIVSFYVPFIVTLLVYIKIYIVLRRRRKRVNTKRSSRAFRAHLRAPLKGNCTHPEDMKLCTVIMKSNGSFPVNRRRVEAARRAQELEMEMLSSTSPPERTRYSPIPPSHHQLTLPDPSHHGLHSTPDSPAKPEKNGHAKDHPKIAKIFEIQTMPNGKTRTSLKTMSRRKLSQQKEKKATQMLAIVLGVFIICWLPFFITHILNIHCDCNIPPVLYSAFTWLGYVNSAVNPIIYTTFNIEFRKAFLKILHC
# Sequence of D(3) dopamine receptor (P35462 whole entry): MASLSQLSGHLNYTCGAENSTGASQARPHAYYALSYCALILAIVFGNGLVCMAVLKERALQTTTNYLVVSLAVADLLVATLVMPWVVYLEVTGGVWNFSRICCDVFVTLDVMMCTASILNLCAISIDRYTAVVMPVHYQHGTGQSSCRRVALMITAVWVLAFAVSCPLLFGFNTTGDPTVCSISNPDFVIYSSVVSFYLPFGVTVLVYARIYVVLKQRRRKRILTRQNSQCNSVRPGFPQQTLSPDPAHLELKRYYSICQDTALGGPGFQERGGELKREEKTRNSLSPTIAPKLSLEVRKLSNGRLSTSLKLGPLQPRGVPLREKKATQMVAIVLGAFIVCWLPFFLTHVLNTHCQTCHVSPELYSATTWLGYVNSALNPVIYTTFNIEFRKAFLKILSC
SMILES,Ki [1] [nM],Ki [2] [nM],Ki [3] [nM],Ki [4] [nM],also measured
c1ccc(OCCNCC2(c3ccccc3)COCCO2)cc1 (stereo not drawn),> 1000,> 1000,269,> 1000,
COc1ccccc1N1CCN(CC2COCC(c3ccccc3)(c3ccccc3)O2)CC1 (stereo not drawn),2.63,22.9,5.01,1.74,Ki (D(2) dopamine receptor): 112 nM; Emax [5]: 39.3%; Ki (D(4) dopamine receptor): 1380 nM; pD2 [6]: 7.01; Ki (D(3) dopamine receptor): 257 nM
COc1ccccc1OCCNCC1(c2ccccc2)COCCO1 (stereo not drawn),> 1000,> 1000,75.9,69.2,
COc1ccccc1OCCNCC1OCCOC1(c1ccccc1)c1ccccc1 (stereo not drawn),> 1000,67.6,3.98,7.41,Ki (D(2) dopamine receptor): 324 nM; GI50 (PC-3 [7]): 13000 nM; TGI (PC-3 [7]): 29000 nM; CC50 (PC-3 [7]): 68000 nM; inhibition (PC-3 [8]): Active; inhibition (PC-3 [9]): Active; inhibition (DU-145 [10]): Active; GI50 at 48 h [11]: 30500 nM; LC50 (Fibroblast): 99600 nM; TGI (Fibroblast): 50200 nM; pKb [12]: 8.5; Ki (D(4) dopamine receptor): 275 nM; inhibition (DU-145 [13]): Active; Ki (D(3) dopamine receptor): 537 nM; GI50 (DU-145 [14]): 18000 nM; TGI (DU-145 [14]): 32000 nM; CC50 (DU-145 [14]): 55000 nM
c1ccc(OCCNC[C@H]2OCCO[C@@H]2c2ccccc2)cc1 (relative stereo),> 1000,> 1000,55,> 1000,
COc1cccc(OC)c1OCCNC[C@H]1OCCO[C@H]1c1ccccc1 (relative stereo),> 1000,> 1000,182,> 1000,
COc1ccccc1N1CCN(C[C@H]2OCCO[C@@H]2c2ccccc2)CC1 (relative stereo),> 1000,> 1000,214,53.7,
COc1ccccc1OCCNCC1COCC(c2ccccc2)(c2ccccc2)O1 (stereo not drawn),,,,,GI50 (PC-3 [7]): 26000 nM; TGI (PC-3 [7]): 64000 nM; CC50 (PC-3 [7]): 157000 nM; GI50 at 48 h [11]: 38400 nM; LC50 (Fibroblast): > 300000 nM; TGI (Fibroblast): 121600 nM; pD2 [6]: 9.4; GI50 (DU-145 [14]): 23000 nM; TGI (DU-145 [14]): 42000 nM; CC50 (DU-145 [14]): 77000 nM
COc1ccccc1N1CCN(CC2(c3ccccc3)COCCO2)CC1 (stereo not drawn),> 1000,> 1000,174,> 1000,
COc1cccc(OC)c1OCCNCC1OCCOC1(c1ccccc1)c1ccccc1 (stereo not drawn),> 1000,> 1000,66.1,> 1000,
c1ccc(OCCNCC2OCCOC2(c2ccccc2)c2ccccc2)cc1 (stereo not drawn),> 1000,> 1000,28.2,316,Emax [5]: 32.9%; pD2 [6]: 6.71
COc1ccccc1N1CCN(C[C@H]2OCCO[C@H]2c2ccccc2)CC1 (relative stereo),> 1000,> 1000,70.8,191,
COc1cccc(OC)c1OCCNCC1(c2ccccc2)COCCO1 (stereo not drawn),> 1000,> 1000,> 1000,> 1000,
COc1ccccc1OCCNC[C@H]1OCCO[C@H]1c1ccccc1 (relative stereo),> 1000,> 1000,20.4,126,Emax [5]: 24.3%; pD2 [6]: 7.13
COc1cccc(OC)c1OCCNC[C@H]1OCCO[C@@H]1c1ccccc1 (relative stereo),> 1000,> 1000,97.7,> 1000,
c1ccc(OCCNC[C@H]2OCCO[C@H]2c2ccccc2)cc1 (relative stereo),> 1000,> 1000,214,> 1000,
COc1ccccc1N1CCN(C[C@H]2OCCOC2(c2ccccc2)c2ccccc2)CC1,355,380,12,89.1,Ki (D(2) dopamine receptor): 2190 nM; GI50 (PC-3 [7]): 25000 nM; TGI (PC-3 [7]): 78000 nM; CC50 (PC-3 [7]): 240000 nM; GI50 at 48 h [11]: > 300000 nM; LC50 (Fibroblast): > 300000 nM; TGI (Fibroblast): > 300000 nM; pKb [12]: 8.14; Ki (D(4) dopamine receptor): 9770 nM; Ki (D(3) dopamine receptor): 2880 nM; GI50 (DU-145 [14]): 35000 nM; TGI (DU-145 [14]): 80000 nM; CC50 (DU-145 [14]): 180000 nM
COc1ccccc1OCCNC[C@H]1OCCO[C@@H]1c1ccccc1 (relative stereo),> 1000,> 1000,9.55,95.5,pKb [12]: 8.2
